In one data set the target is BRD4(1) (Homo sapiens (Human), UniProt O60885). The data set can be described thus: Alpha-assay binding, BRD4 site 1. To be noted: for binding activity with the BRD4 site 1: result in words. On the procedure: The binding activity of lead compounds with the BRD4 site 1 was determined by Alpha-assay with a 12-point dose response curve.
The target in another data set is BRD4(2) (Homo sapiens (Human), UniProt O60885). The experiment in a line: Alpha-assay binding, BRD4 site 2. To be noted: for binding activity with the BRD4 site 2: result in words.
In a further data set the test system is RIN-5F. The data set can be described thus: Cell Titer-Glo rat insulinoma cell assay, RIN-5F. In kind it is cell-based. To be noted: cell viability after 168-192 total hours of culture. How it is done:
(§1) Paclitaxel was used as a positive control.
(§2) Cells were seeded at 5000 cells per well in a 96-well microculture plate in a total volume of 100 μl/well and incubated for 24 hours. […] The concentrations tested for paclitaxel were, 10 μM, 2.5 μM, 0.625 μM, 0.156 μM, 0.0391 μM, 0.00977 μM, 0.00244 μM, 0.000610 μM, 0.000153 μM, and 0.0000381 μM. Duplicate data for RIN-5F was obtained where the test concentrations for paclitaxel were, 1 μM, 0.25 μM, 0.0625 μM, 0.0156 μM, 0.00391 μM, 0.000977 μM, 0.000244 μM, 0.0000610 μM, 0.0000153 μM, and 0.00000381 μM. After 168-192 total hours of culture 100 μl of media was removed from each well and 50 μl of Cell Titer-Glo (Promega #G7571) was added to each well. The plate was shaken for 2 minutes and allowed to equilibrate for 10 minutes. Luminescence was measured on a Tecan GENios microplate reader. Percent inhibition of cell viability was calculated relative to untreated control wells. All tests were performed in triplicate or quadruplicates at each concentration level. IC50 values were calculated using Prism 6.00 curve-fitting with a four parameter-logistic equation.
(§3) Cells were seeded at 5000 cells per well in a 96-well microculture plate in a total volume of 100 μl/well and incubated for 24 hours. […] After 168-192 total hours of culture 100 μl of media was removed from each well and 50 μl of Cell Titer-Glo (Promega #G7571) was added to each well. The plate was shaken for 2 minutes and allowed to equilibrate for 10 minutes. Luminescence was measured on a Tecan GENios microplate reader. Percent inhibition of cell viability was calculated relative to untreated control wells. All tests were performed in triplicate or quadruplicates at each concentration level. IC50 values were calculated using Prism 6.00 curve-fitting with a four parameter-logistic equation.
(In general: ATP-based viability assays read luminescence as a measure of living cells.)

In data set [1] the test system is four rat insulinoma (RIN) cell lines, RIN-14B, RIN-m5F, RIN-m, and RIN-5. The experiment in a line: Cell Titer-Glo rat insulinoma cell assay, statement for all four cell lines. The data set is classed as cell-based. To be noted: for cell viability at higher concentrations: cytotoxic effect; for IC50: read-out: IC50 values, all cell lines. How it is done:
as §1
(§4) The plate was shaken for 2 minutes and allowed to equilibrate for 10 minutes. Luminescence was measured on a Tecan GENios microplate reader. Percent inhibition of cell viability was calculated relative to untreated control wells. All tests were performed in triplicate or quadruplicates at each concentration level. IC50 values were calculated using Prism 6.00 curve-fitting with a four parameter-logistic equation.
as §4

For a further data set, the system named is RIN-14B. The data set can be described thus: Cell Titer-Glo rat insulinoma cell assay, RIN-14B. In kind it is cell-based. On the procedure:
as §1, §2, §3

For another data set, the system named is RIN-m. The experiment in a line: Cell Titer-Glo rat insulinoma cell assay, RIN-m. The data set is classed as cell-based. On the procedure: as §1, §2, §3
Another data set concerns RIN-m5F. The experiment in a line: Cell Titer-Glo rat insulinoma cell assay, RIN-m5F. The data set is classed as cell-based. On the procedure:
as §1, §2, §3

Data set [2] in a line: at least one biological assay (not specified).
In data set [3] the test system is RIN-m5F rat insulinoma cells. The data set can be described thus: RNA-Seq expression analysis of JQ1 treated RIN-m5F insulinoma cells. In kind it is cell-based. To be noted: 500 nM, 24 hr; result in words. On the procedure:
As shown below, BET inhibition disrupts both oncogenic and pancreatic islet cell transcriptional profiles.
Cells were scraped and total RNA was extracted and purified using a Qiagen RNeasy Mini Kit (cat. 74104) as described in the manufacturer's protocol. […] For each sample, 4 μg of total RNA was then used in Illumina's TruSeq RNA sample preparation V2 kit. […] Libraries were sequenced on Illumina NextSeq 500 as paired-end 75-nt reads.
Sequence reads were analyzed with the TopHat—Cufflinks software pipeline. Average size of library molecules was 400 bp, therefore the—r parameter was set to […]. (Versions were: TopHat v2.0.9, Bowtie 2.1.0.0, Cufflinks v2.1.1). The rat (rn5) gene reference GTF file was obtained from Illumina iGenomes.

This note sets out measurements from patent US10925881B2, “Treatment of conditions associated with hyperinsulinaemia” (Tensha Therapeutics, Inc., priority 2014, dated 2021).

Like-named read-outs stand apart in the source and are kept apart here.

Consider `Cc1sc2c(c1C)C(c1ccc(Cl)cc1)=N[C@@H](CC(=O)NCCN1CCOCC1)c1nnc(C)n1-2` (stereo in doubt) [(S)-JQ33], for which the IC50 (in general, the concentration that inhibits the measured activity by half) at BRD4(1) (12-point dose response curve, read-out: Bio-assay IC50 BRD4(1)) stood at 85 nM; at BRD4(2) (12-point dose response curve, read-out: Bio-assay IC50 BRD4(2)), 29.5 nM. Further, the “binding activity with the BRD4 site 1” value on BRD4(1) was “excellent binding activity”. For the same molecule, the “binding activity with the BRD4 site 2” value on BRD4(2) was “excellent binding activity”.

Turning to `Cc1sc2c(c1C)C(c1ccc(Cl)cc1)=N[C@@H](CC(=O)NCCCN1CCN(C)CC1)c1nnc(C)n1-2` (stereo in doubt) [(S)-JQ35], the half-inhibitory concentration (IC50) was 215 nM in the data set with RIN-5F (Example 8 additional data, two values, read-out: IC50 Values, RIN-5F); 183 nM in the data set on RIN-5F (Rattus norvegicus, Example 8 additional data, two values, read-out: IC50 Values, RIN-5F); < 200 nM in data set [1] (Rattus norvegicus, RIN-m5F, Example 8); 207 nM with RIN-14B (Example 8 additional data, cell viability after 168-192 total hours of culture, read-out: IC50 Values, RIN-14B); 151 nM with RIN-m (Example 8 additional data, cell viability after 168-192 total hours of culture, read-out: IC50 Values, RIN-m); 188 nM with RIN-m5F (Example 8 additional data, cell viability after 168-192 total hours of culture, read-out: IC50 Values, RIN-m5F). Also, at BRD4(1), the “binding activity with the BRD4 site 1” value is recorded as “excellent binding activity”. Besides, the “binding activity with the BRD4 site 2” value at BRD4(2) is “excellent binding activity”. In addition, the cell viability (as a rule, the share of living cells, or the viability signal relative to a control) at higher concentrations in data set [1] (Example 8) is ~0%.

For `CC(=O)O[C@H]1C(=O)[C@@]2(C)[C@H]([C@H](OC(=O)c3ccccc3)[C@]3(O)C[C@H](OC(=O)[C@H](O)[C@@H](NC(=O)c4ccccc4)c4ccccc4)C(C)=C1C3(C)C)[C@]1(OC(C)=O)CO[C@@H]1C[C@@H]2O` [Paclitaxel, reference compound], the IC50 came to 3.14 nM in the data set with RIN-5F (Example 3, Table 1, duplicate data, read-out: IC50 Values, RIN-5F); 1.63 nM with RIN-5F (Rattus norvegicus, Example 3, Table 1, duplicate data, read-out: IC50 Values, RIN-5F); 1.33 nM in the data set on RIN-14B (Example 3, Table 1, cell viability after 168-192 total hours of culture, read-out: IC50 Values, RIN-14B); 0.718 nM in the data set with RIN-m (Example 3, Table 1, cell viability after 168-192 total hours of culture, read-out: IC50 Values, RIN-m); 0.43 nM in the data set on RIN-m5F (Example 3, Table 1, cell viability after 168-192 total hours of culture, read-out: IC50 Values, RIN-m5F).

Turning to `Cc1sc2c(c1C)C(c1ccc(Cl)cc1)=NC(CC(=O)NN)c1nnc(C)n1-2` (stereo not shown) [Compound 3], the “activity in at least one biological assay” value in data set [2] was “showed activity”.

Consider `Cc1sc2c(c1C)C(c1ccc(Cl)cc1)=N[C@@H](CC(=O)N/N=C/c1ncc[nH]1)c1nnc(C)n1-2` [(S)-JQ6], for which the “binding activity with the BRD4 site 1” value on BRD4(1) is “excellent binding activity”. For the same molecule, the “binding activity with the BRD4 site 2” value at BRD4(2) was “excellent binding activity”.

Turning to `Cc1sc2c(c1C)C(c1ccc(Cl)cc1)=N[C@@H](CC(=O)NCCN1CCN(C)CC1)c1nnc(C)n1-2` [(S)-JQ13], the “binding activity with the BRD4 site 1” value at BRD4(1) was “excellent binding activity”. Moreover, the “binding activity with the BRD4 site 2” value on BRD4(2) was “excellent binding activity”.

As for `Cc1sc2c(c1C)C(c1ccc(Cl)cc1)=N[C@@H](CC(=O)OC(C)(C)C)c1nnc(C)n1-2` [(S)-JQ1, (S)-tert-Butyl 2-(4-(4-chlorophenyl)-2,3,9-trimethyl-6H-thieno[3,2-f][1,2,4]triazolo [4,3-a][1,4]diazepin-6-yl)acetate], the IC50 was 96 nM in the data set with RIN-5F (Rattus norvegicus, read-out: IC50 Values, RIN-5F, Example 3, Table 1, duplicate data); 52 nM in the data set with RIN-5F (Rattus norvegicus, read-out: IC50 Values, RIN-5F, Example 8 additional data, two values); 61 nM in the data set on RIN-5F (read-out: IC50 Values, RIN-5F, Example 3, Table 1, duplicate data); 73.1 nM in the data set on RIN-5F (read-out: IC50 Values, RIN-5F, Example 8 additional data, two values); < 100 nM in [1] (Rattus norvegicus, RIN-m5F); < 100 nM in data set [1] (Example 8). The half-inhibitory concentration (IC50) with RIN-14B (read-out: IC50 Values, RIN-14B, Example 3, Table 1, cell viability after 168-192 total hours of culture) was 17 nM; in the data set on RIN-14B (read-out: IC50 Values, RIN-14B, Example 8 additional data, cell viability after 168-192 total hours of culture), 20.7 nM; in the data set with RIN-m (read-out: IC50 Values, RIN-m, Example 3, Table 1, cell viability after 168-192 total hours of culture) it was 34 nM; in the data set on RIN-m (read-out: IC50 Values, RIN-m, Example 8 additional data, cell viability after 168-192 total hours of culture), 29.3 nM; in the data set on RIN-m5F (read-out: IC50 Values, RIN-m5F, Example 3, Table 1, cell viability after 168-192 total hours of culture), 31 nM; in the data set on RIN-m5F (read-out: IC50 Values, RIN-m5F, Example 8 additional data, cell viability after 168-192 total hours of culture), 51 nM. Also, the “cell viability at higher concentrations” value in data set [1] (Example 3) and in [1] (Example 8) was ~0% each time.

For the molecule `Cc1sc2c(c1C)C(c1ccc(Cl)cc1)=N[C@@H](CC(=O)NCCc1cnc[nH]1)c1nnc(C)n1-2` [(S)-JQ8], the “binding activity with the BRD4 site 1” value on BRD4(1) is “excellent binding activity”. Besides, the “binding activity with the BRD4 site 2” value at BRD4(2) was “excellent binding activity”.

As for `Cc1sc2c(c1C)C(c1ccc(Cl)cc1)=NC(CC(=O)OC(C)(C)C)c1nnc(C)n1-2` (stereo not shown) [JQ1, tert-Butyl 2-(4-(4-chlorophenyl)-2,3,9-trimethyl-6H-thieno[3,2-f][1,2,4]triazolo[4,3-a][1,4]diazepin-6-yl)acetate], the “genes with decreased versus increased expression” value in data set [3] was “larger number of genes with decreased expression as compared to increased expression”.
